# Target: T1, human glycogen phosphorylase a (Homo sapiens, UniProt P06737)
# T1 sequence (P06737 1-847): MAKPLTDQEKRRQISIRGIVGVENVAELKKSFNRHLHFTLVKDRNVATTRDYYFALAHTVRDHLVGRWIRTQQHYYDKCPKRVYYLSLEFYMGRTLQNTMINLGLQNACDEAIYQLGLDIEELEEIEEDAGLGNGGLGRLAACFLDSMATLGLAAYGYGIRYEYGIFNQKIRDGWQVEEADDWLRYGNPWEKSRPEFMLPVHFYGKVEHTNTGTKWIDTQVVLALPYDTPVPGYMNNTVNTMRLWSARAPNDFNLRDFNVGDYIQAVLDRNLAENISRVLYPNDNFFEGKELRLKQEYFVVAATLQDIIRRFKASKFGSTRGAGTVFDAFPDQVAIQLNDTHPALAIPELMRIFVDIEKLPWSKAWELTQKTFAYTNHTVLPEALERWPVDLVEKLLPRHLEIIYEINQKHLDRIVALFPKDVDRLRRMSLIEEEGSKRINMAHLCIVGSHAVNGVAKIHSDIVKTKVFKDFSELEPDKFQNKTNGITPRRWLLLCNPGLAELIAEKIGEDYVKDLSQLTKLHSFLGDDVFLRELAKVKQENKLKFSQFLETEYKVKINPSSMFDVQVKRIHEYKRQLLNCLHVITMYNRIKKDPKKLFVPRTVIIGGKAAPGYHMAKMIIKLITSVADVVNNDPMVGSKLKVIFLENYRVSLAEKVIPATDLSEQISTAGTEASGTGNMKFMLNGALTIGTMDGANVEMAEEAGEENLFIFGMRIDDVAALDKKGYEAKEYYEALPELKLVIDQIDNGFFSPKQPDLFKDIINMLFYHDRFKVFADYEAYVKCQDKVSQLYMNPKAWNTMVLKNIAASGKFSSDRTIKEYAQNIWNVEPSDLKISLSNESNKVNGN
# Test: Glycogen phosphorylase a activity test
# Type: biochemical
# Conditions: 10 μM test substance, GPa measured in reverse direction (glycogen synthesis from glucose 1-phosphate)
# Method: Glycogen Phophorylase a Activity Test
# The effect of compounds on the activity of the active form of glycogen phosphorylase (GPa) was measured in the reverse direction by monitoring the synthesis of glycogen from glucose 1-phosphate by determining the release of inorganic phosphate. All reactions were carried out as duplicate determinations in 96-well microtiter plates (half area plates, Costar No. 3696), and the change in absorption as a consequence of the formation of the reaction product was measured at the wavelength specified below in a Multiskan Ascent Elisa Reader (Lab Systems, Finland).
# In order to measure the GPa enzyme activity in the reverse direction, the conversion of glucose 1-phosphate to glycogen and inorganic phosphate was measured by the general method of Engers et al. (Engers HD, Shechosky S, Madsen NB, Can J Biochem 1970 July;48(7):746–754) with the following modifications: human glycogen phosphorylase a (for example containing 0.76 mg of protein/ml (Aventis Pharma Deutschland GmbH), dissolved in buffer solution E (25 mM P-glycerophosphate, pH 7.0, 1 mM EDTA and 1 mM dithiotreitol) was diluted to a concentration of 10 μg of protein/ml with buffer T (50 mM Hepes, pH 7.0, 100 mM KCl, 2.5 mM EDTA, 2.5 mM MgCl2.6H2O) and addition of 5 mg/ml of glycogen. Test substances were prepared as a 10 mM solution in DMSO and diluted to 50 μM with buffer solution T. To 10 μl of this solution were added 10 μl of 37.5 mM glucose dissolved in buffer solution T and 5 mg/ml of glycogen, and also 10 μl of a solution of human glycogen phosphorylase a (10 μg of protein/ml) and 20 μl of 2.5 mM glucose 1-phosphate. The base value of the activity of glycogen phosphorylase a in the absence of test substance was determined by adding 10 μl of buffer solution T (0.1% DMSO). The mixture was incubated at room temperature for 40 minutes and the released inorganic phosphate was determined by means of the general method of Drueckes et al. (Drueckes P, Schinzel R, Palm D, Anal Biochem 1995 Sep. 1;230(1):173–177) with the following modifications: 50 μl of a stop solution of 7.3 mM of ammonium molybdate, 10.9 mM of zinc acetate, 3.6% of ascorbic acid, 0.9% of SDS are added to 50 μl of the enzyme mixture. After 60 minutes of incubation at 45° C., the absorption was measured at 820 nm. To determine the background absorption, the stop solution was added immediately after the addition of the glucose 1-phosphate solution in a separate reaction.
Compound,% Inhibition at 10 μM [%],further results
CCN(CC)c1ccc(NC(C)=O)cc1NC(=O)NC(=O)c1cc(F)c(F)cc1Cl [Example 72],96,
COc1cc(C)c(NC(C)=O)cc1NC(=O)NC(=O)c1cc(F)c(F)cc1Cl [Example 14],91,
"CC(=O)Nc1ccc(OC(F)(F)F)c(NC(=O)NC(=O)c2cc(F)c(F)cc2Cl)c1 [Example 64, N-{3-[3-(2-Chloro-4,5-difluorobenzoyl)ureido]-4-trifluoromethoxyphenyl}acetamide]",,inhibition at 10 µM: 101%
COc1ccc(NC(C)=O)cc1NC(=O)NC(=O)c1ccc(Cl)cc1Cl [Example 82],102,
COC(=O)CC(=O)Nc1ccc(OC(F)(F)F)c(NC(=O)NC(=O)c2cc(F)c(F)cc2Cl)c1 [Example 66],100,
CCC(=O)Nc1ccc(OC)c(NC(=O)NC(=O)c2cc(F)c(F)cc2Cl)c1 [Example 30],101,
CC(=O)Nc1ccc(Cl)c(NC(=O)NC(=O)c2cc(F)c(F)cc2Cl)c1 [Example 85],98,
O=C(O)CCC(=O)Nc1ccc(Cl)c(NC(=O)NC(=O)c2cc(F)c(F)cc2Cl)c1 [Example 84],100,
COc1cc(C)c(NC(=O)NC(=O)c2cc(F)c(F)cc2Cl)cc1NC(=O)C(=O)O [Example 13],94,
CNCC(=O)Nc1ccc(OC)c(NC(=O)NC(=O)c2cc(F)c(F)cc2Cl)c1 [Example 54],100,
COC(=O)CC(=O)Nc1cc(NC(=O)NC(=O)c2cc(F)c(F)cc2Cl)c(OC)cc1C [Example 16],95,
"CC(=O)Nc1ccc(N2CCCC2)c(NC(=O)NC(=O)c2cc(F)c(F)cc2Cl)c1 [Example 73, N-{3-[3-(2-Chloro-4,5-difluorobenzoyl)ureido]-4-pyrrolidin-1-ylphenyl}acetamide]",,inhibition at 10 µM: 97%
COc1ccc(NC(=O)c2ccco2)cc1NC(=O)NC(=O)c1cc(F)c(F)cc1Cl [Example 32],102,
COc1ccc(NC(=O)C2CCC2)cc1NC(=O)NC(=O)c1cc(F)c(F)cc1Cl [Example 44],101,
COc1ccc(NC(=O)CO)cc1NC(=O)NC(=O)c1cc(F)c(F)cc1Cl [Example 62],101,
COc1cc(C(=O)O)c(NC(C)=O)cc1NC(=O)NC(=O)c1cc(F)c(F)cc1Cl [Example 19],97,
COC(=O)CCC(=O)Nc1ccc(OC)c(NC(=O)NC(=O)c2cc(F)c(F)cc2Cl)c1 [Example 4],97,
COc1cc(C(=O)O)c(NC(=O)CC(=O)O)cc1NC(=O)NC(=O)c1cc(F)c(F)cc1Cl [Example 22],96,
COc1ccc(NC(=O)C(C)C)cc1NC(=O)NC(=O)c1cc(F)c(F)cc1Cl [Example 50],,% Inhibition at 10 μM (10 µM): 94%
COc1ccc(NC(=O)CCC(=O)O)cc1NC(=O)NC(=O)c1cc(F)c(F)cc1Cl [Example 7],100,
O=C(O)CC(=O)Nc1ccc(OC(F)(F)F)c(NC(=O)NC(=O)c2cc(F)c(F)cc2Cl)c1 [Example 69],100,
COc1ccc(NC(=O)C2CCCC2)cc1NC(=O)NC(=O)c1cc(F)c(F)cc1Cl [Example 33],96,
CC(=O)Nc1ccc(N(C)C)c(NC(=O)NC(=O)c2cc(F)c(F)cc2Cl)c1 [Example 71],97,

Compound,% Inhibition at 10 μM [%],further results
COc1ccc(NC(=O)c2cc3cc(Cl)ccc3o2)cc1NC(=O)NC(=O)c1cc(F)c(F)cc1Cl [Example 39],101,
COC(=O)C(=O)Nc1ccc(OC(F)(F)F)c(NC(=O)NC(=O)c2cc(F)c(F)cc2Cl)c1 [Example 65],98,
CCOC(=O)CCC(=O)Nc1ccc(OC)c(NC(=O)NC(=O)c2cc(F)c(F)cc2Cl)c1 [Example 48],97,
COc1cc(C(=O)O)c(NC(=O)CCC(=O)O)cc1NC(=O)NC(=O)c1cc(F)c(F)cc1Cl [Example 26],97,
CC=CC(=O)Nc1ccc(OC)c(NC(=O)NC(=O)c2cc(F)c(F)cc2Cl)c1 [Example 35],99,
COc1ccc(NC(=O)CCC(N)=O)cc1NC(=O)NC(=O)c1cc(F)c(F)cc1Cl [Example 8],100,
C=CCCC(=O)Nc1ccc(OC)c(NC(=O)NC(=O)c2cc(F)c(F)cc2Cl)c1 [Example 46],102,
COc1cc(C)c(NC(=O)C(=O)O)cc1NC(=O)NC(=O)c1cc(F)c(F)cc1Cl [Example 17],100,
COc1ccc(NC(=O)CCN)cc1NC(=O)NC(=O)c1cc(F)c(F)cc1Cl [Example 55],100,
O=C(O)CCC(=O)Nc1ccc(Cl)c(NC(=O)NC(=O)c2ccc(Cl)cc2Cl)c1 [Example 81],97,
C#CCCC(=O)Nc1ccc(OC)c(NC(=O)NC(=O)c2cc(F)c(F)cc2Cl)c1 [Example 57],99,
C#CCC(=O)Nc1ccc(OC)c(NC(=O)NC(=O)c2cc(F)c(F)cc2Cl)c1 [Example 60],103,
COc1ccc(NC(=O)c2ccccc2OC)cc1NC(=O)NC(=O)c1cc(F)c(F)cc1Cl [Example 34],97,
COC(=O)CC(=O)Nc1cc(NC(=O)NC(=O)c2cc(F)c(F)cc2Cl)c(C)cc1OC [Example 10],95,
CCOC(=O)c1cc(OC)c(NC(=O)NC(=O)c2cc(F)c(F)cc2Cl)cc1NC(C)=O [Example 20],95,
COc1ccc(NC(=O)CCCN)cc1NC(=O)NC(=O)c1cc(F)c(F)cc1Cl [Example 53],100,
COc1ccc(NC(=O)C(C)C)cc1NC(=O)NC(=O)c1cc(F)c(F)cc1Cl [Example 43],,% Inhibition at 10 μM (10 µM): 98%
COc1ccc(NC(=O)c2cccc(F)c2)cc1NC(=O)NC(=O)c1cc(F)c(F)cc1Cl [Example 45],97,
COC(=O)C(=O)Nc1ccc(Cl)c(NC(=O)NC(=O)c2cc(F)c(F)cc2Cl)c1 [Example 87],96,
COC(=O)CC(=O)Nc1ccc(OC)c(NC(=O)NC(=O)c2cc(F)c(F)cc2Cl)c1 [Example 3],104,
COc1cc(C(=O)O)c(NC(=O)C(=O)O)cc1NC(=O)NC(=O)c1cc(F)c(F)cc1Cl [Example 25],95,
COc1ccc(NC(=O)CN(C)C)cc1NC(=O)NC(=O)c1cc(F)c(F)cc1Cl [Example 58],99,
O=C(O)CCC(=O)Nc1cccc(NC(=O)NC(=O)c2ccc(Cl)cc2Cl)c1 [Example 78],86,
